{"source": "patent US12059412B2", "about": "“Pharmaceutical composition containing (R)-N-[1-(3,5-difluoro-4-methanesulfonylamino-phenyl)-ethyl]-3-(2-propyl-6-trifluoromethylpyridin-3-yl)-acrylamide and method for inhibiting crystal formation thereof” (Amorepacific Corporation, priority 2018, dated 2024)", "assay": "Solubility of compound of Formula 1 in various solvents (excess compound, shaking, HPLC)", "format": "physicochemical", "details": "Ethanol; 25° C., 24 hours", "method": "Since solvent that gives high solubility can dissolve the compound of Formula 1 in a small amount compared to a solvent that gives low solubility, in particular, when formulated into an external preparation of skin, a relatively higher amount of water may be contained, so that the feeling of use can be further enhanced.\nAn excessive amount of the compound of Formula 1 was added to 1 mL of each solvent shown in Table 1 below, and stirred at 25° C. at 200 rpm for 24 hours while shaking\n(Shaking incubator, SI 600R, JEIO TECH, Korea). Thereafter, centrifugation was performed at 10,000 rpm for 10 minutes, and the supernatant was filtered using a membrane filter (0.2 μm), diluted appropriately with methanol, and analyzed by HPLC.", "data": [{"compound": "CCCc1nc(C(F)(F)F)ccc1/C=C/C(=O)N[C@H](C)c1cc(F)c(NS(C)(=O)=O)c(F)c1", "note": "[compound of Formula 1, (R)-N-[1-(3,5-difluoro-4-methanesulfonylamino-phenyl)-ethyl]-3-(2-propyl-6-trifluoromethyl-pyridin-3-yl)-acrylamide]", "values": [{"measurement": "Solubility", "value": 75.32, "unit": "mg/mL"}]}]}
